Data on 35 compounds can be found in PubChem BioAssay AID2384 (Southern Research Specialized Biocontainment Screening …, 2010).

Several values for one entry are separate records, joined by “and”; a condition that tells them apart may be missing. Equal entries are not always repeated.

For the experiment, the system named is S. typhi GFP reporter counter-screen, fluorescence, 4 h. In words: inhibitors in S. typhi counter-screen strain, dose response, counter-screen for PhoP regulon inhibitor project, fluorescence, 4 h (AID 2384). (Counterscreens check selectivity or assay interference.)
In general, IC50 refers to the midpoint of a concentration-inhibition curve. In the case of `CCCCCCCCCCCCCCCC[n+]1cccc(C(=O)N(CC)CC)c1`, the concentration for half-maximal inhibition (IC50) is 18.3 µM.

Take `CC1CCC(C(C)C)C(OC(=O)Cn2c(-c3ccc(Br)cc3)[n+](C)c3ccccc32)C1` (stereo not given): the IC50 is 73.6 µM. To `C#CCOCCOCCOCCNc1nc(N2CCN(C(=O)CCCCCCCCCCNC(=O)[C@H]([C@@H](C)CC)n3cc(CCCCN=C(N)N)nn3)CC2)nc(N2CCN(C(=O)CCCCCCCCCCNC(=O)[C@H](CCCCN)n3cc(C)nn3)CC2)n1` belongs 47.3 µM; to `COc1c(N2CCNC(C)C2)c(F)cc2c(=O)c(C(=O)O)cn(C3CC3)c12` (stereo not given), 1.1 µM. Consider `CC1CC(=O)c2c(cc3c(-c4c(O)cc(O)c5c(O)c6c(cc45)OC(C)CC6=O)c(O)cc(O)c3c2O)O1` (stereo not given), for which the IC50 was 28.6 µM. As to `c1ccc(Sc2cccc3ccccc23)c(CNC2=NCCN2)c1`, the IC50 was 40.1 µM. With `Oc1c(Cl)cc(CN2CCCCC2)c2cccnc12`, the IC50 was 9.15 µM.

As to `O=C(N/N=C/c1cc(Cl)cc([N+](=O)[O-])c1O)C1CC1`, the IC50 was 98 µM. To `O=c1[nH]c(=S)ccn1C1OC(CO)C(O)C1O` (stereo not given) belongs 12.4 µM.

As to `CN1CCN(c2nc3cc(C(F)(F)F)ccc3n3cccc23)CC1`, the IC50 is 42.4 µM. Consider `N=c1n(CCN2CCCCC2)c2ccccc2n1CC(O)COc1ccccc1` (stereo not given), for which the IC50 is 29.7 µM. To `CCCCC(=O)NC(=S)NNC(=O)CC` belongs 62.2 µM; to `NC(=NCCCCCCN=C(N)/N=C(\N)Nc1ccc(Cl)cc1)/N=C(\N)Nc1ccc(Cl)cc1`, 5.2 µM and 5.4 µM and 5.13 µM; to `CCOC(=O)C1=C(c2ccccc2)NC(N)=NC1c1ccc(OCc2ccc(C(=O)OC)cc2)cc1` (stereo not given), 35.8 µM.

For `Oc1ccccc1Nc1nc(NCc2ccco2)c2ccccc2n1`, the IC50 was 50.9 µM. In the case of `CCn1cc(C(=O)NCCCN(C)C)c(=O)c2cc(F)c(N3CCN(C)CC3)cc21`, the IC50 was 96.4 µM.

As to `CCn1nnc(NC(=O)c2ccc([N+](=O)[O-])o2)n1`, the IC50 was 80 µM. For the compound `Cc1ccc(-n2c(C)cc(C3N=C(N)Nc4nc5ccccc5n43)c2C)c(C)c1` (stereo not given), the IC50 is 26.6 µM. Regarding `CN(C)CCCN(C(=O)COc1ccccc1)c1nc2ccc(Cl)cc2s1`, the IC50 was 40.5 µM. Turning to `C=CC1=C(C(=O)O)N2C(=O)[C@@H](NC(=O)/C(=N/OCC(=O)O)c3csc(N)n3)[C@H]2SC1`, the IC50 is 16.5 µM. Take `Cc1ccc2c(c1)N/C(=C(\C=C(/Cl)[N+](=O)[O-])[N+](=O)[O-])N2`: the IC50 was 131 µM. Take `COCCCNC(=S)NNC(=O)c1ccccn1`: the half-inhibitory concentration (IC50) is 23.7 µM.

Consider `Cc1cc(NS(=O)(=O)c2ccc(NC(=O)Nc3cccc(Cl)c3)cc2)no1`, for which the IC50 is 120 µM.

As for `CCCOc1ccc(C(=O)NNC(=S)NC(=O)CC)cc1`, the concentration for half-maximal inhibition (IC50) was 28.7 µM. For `C#CCOCCOCCOCCNc1nc(N2CCN(C(=O)CCCCCCCCCCNC(=O)[C@H](CCCCN)n3cc(C)nn3)CC2)nc(N2CCN(C(=O)CCCCCCCCCCNC(=O)[C@H](CCCN=C(N)N)n3cc(C[C@@H](C)CC)nn3)CC2)n1`, the IC50 is 20.7 µM.

Turning to `CN(C)CC/C=C1/c2ccccc2Sc2ccc(Cl)cc21`, the IC50 was 30.1 µM. As to `O=Nc1ccc(O)c2ncccc12`, the IC50 was 20 µM. For `Cc1cc(CSC(=N)N)c(CSC(=N)N)cc1C`, the IC50 was 50.1 µM. On to `O[C@@H](c1cc(C(F)(F)F)nc2c(C(F)(F)F)cccc12)[C@H]1CCCCN1`, for which the IC50 was 37.8 µM. As for `Cc1cc(C)n(/N=C/c2cc(Cl)cc(Cl)c2O)c(=O)c1`, the IC50 was 101 µM.

`Cc1c(N2C(=O)/C(=C3\C(=O)N(CC(=O)O)c4ccccc43)SC2=S)c(=O)n(-c2ccccc2)n1C`: the IC50 is 95.2 µM. On to `CN(C)CCN(C(=O)C1=COCCO1)c1nc2ccc(Cl)cc2s1`, for which the IC50 is 49.5 µM. In the case of `CCOC(=O)N1CCN(C(=O)c2cn(CC)c3cc(N4CCN(C)CC4)c(F)cc3c2=O)CC1`, the IC50 was 20.3 µM. In the case of `Nc1nonc1-n1nnc(C(=O)N/N=C/c2cc(Br)ccc2O)c1CSC1=NCCS1`, the IC50 is 24.1 µM.

For the compound `O=C(Nc1nnc(-c2cccs2)o1)c1cccc(F)c1`, the IC50 is 28.6 µM.
